Experimental data published in patent US20200181104A1, “SSAO INHIBITORS AND USES THEREOF” (METACRINE, INC., priority 2018, published 2020).
Where a name gives a salt, the structure may show the parent alone.

Biological target: T1, Recombinant Human SSAO/VAP-1/AOC3 (Homo sapiens, UniProt Q16853)
T1 construct: purchased R&D systems 3957-AO
T1 sequence (Q16853 1-763): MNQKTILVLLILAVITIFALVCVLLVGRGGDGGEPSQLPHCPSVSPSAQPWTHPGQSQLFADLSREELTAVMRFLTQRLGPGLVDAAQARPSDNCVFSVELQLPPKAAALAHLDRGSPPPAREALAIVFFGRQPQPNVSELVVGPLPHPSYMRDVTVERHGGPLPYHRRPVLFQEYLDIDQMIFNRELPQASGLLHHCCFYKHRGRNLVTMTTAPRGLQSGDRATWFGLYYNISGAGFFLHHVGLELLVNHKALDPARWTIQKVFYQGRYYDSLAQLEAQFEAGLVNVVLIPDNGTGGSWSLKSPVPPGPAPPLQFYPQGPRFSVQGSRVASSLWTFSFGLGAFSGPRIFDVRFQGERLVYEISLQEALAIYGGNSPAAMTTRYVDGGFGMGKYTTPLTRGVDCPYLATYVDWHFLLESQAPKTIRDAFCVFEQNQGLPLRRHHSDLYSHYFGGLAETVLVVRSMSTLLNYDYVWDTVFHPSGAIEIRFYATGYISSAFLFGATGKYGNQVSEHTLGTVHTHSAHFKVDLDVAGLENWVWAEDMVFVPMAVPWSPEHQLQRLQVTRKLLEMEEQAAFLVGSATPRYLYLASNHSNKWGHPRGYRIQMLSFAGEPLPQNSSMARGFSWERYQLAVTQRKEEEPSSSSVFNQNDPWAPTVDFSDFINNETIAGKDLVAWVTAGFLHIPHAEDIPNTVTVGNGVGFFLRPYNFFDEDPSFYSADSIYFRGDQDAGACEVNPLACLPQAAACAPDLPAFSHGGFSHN
Experiment: Human Semicarbazide-Sensitive Amine Oxidase (SSAO) Assay
Type: biochemical
Conditions: recombinant enzyme, 30 minutes preincubation at 37° C., benzylamine substrate, Amplex Ultra Red/HRP fluorescence
Protocol: Compounds were dissolved in DMSO to provide a Concentration Response Curve (CRC; at 500 times the final concentration) over a range of 6-10 dilutions.
Recombinant Human SSAO/VAP-1/AOC3 (R&D systems; Catalog #3957-AO) was used to screen compound potency in vitro, according to previously described methods (J Pharmacol Exp Ther. 2013 November; 347(2):365-74). SSAO enzyme was suspended in 50 mM HEPES buffer to a working concentration of 2.5 μg/ml and 40 μL of this enzyme mixture was then added to each well of a F16 Black Maxisorp 96 well Plate (Nunc, Catalog #475515). Ten microliters of each test compound (at 5 times the final concentration) were added to each well, resulting in a final well volume of 50 μL of the enzyme and inhibitor mixture. The compounds were preincubated with the enzyme for 30 minutes at 37° C., prior to the addition of a 40 μL volume of Amplex Ultra Red (125 uM AUR; Molecular Probes, Catalog # A36006)/Horseradish peroxidase (2.5 U/ml HRP; Sigma-Aldrich Catalog # P8375) oxidase detection reagent containing cytochrome C ([…]; Sigma-Aldrich Catalog # C7752). Cytochrome C was included in the AUR/HRP detection mixture to reduce the background fluorescence that can occur via the spontaneous redox reaction between AUR and HRP. The SSAO enzyme reaction was then initiated by adding 10 μL of the SSAO substrate, benzylamine (Sigma-Aldrich Catalog # B5136), and SSAO activity was measured in kinetic mode over a 30-120 minute sampling period (excit. 544 nm; emit 590 nm; cut off 570 nm; medium gain) to obtain IC50 values for enzyme activity in each treatment well.

IC50, ≤ 10 nM:
CNC(=O)C12CCCC(c3ccc(OC/C(=C/F)CN)cc3)(CC1)C2 (stereo not drawn) [Compound 5, 5-(4-(((E)-2-(Aminomethyl)-3-fluoroallyl)oxy)phenyl)-N-methylbicyclo[3.2.1]octane-1-carboxamide Hydrochloride]
Cc1cc(C23CCC(C(N)=O)(CC2)CC3)ccc1OC/C(=C/F)CN [Compound 2.02, (E)-4-(4-((2-(aminomethyl)-3-fluoroallyl)oxy)-3-methylphenyl)bicyclo[2.2.2] octane-1-carboxamide]
COC(C)(C)CCNC(=O)C12CCC(c3ccc(OC/C(=C/F)CN)cc3)(CC1)CC2 [Compound 2.138, (E)-4-(4-((2-(aminomethyl)-3-fluoroallyl)oxy)phenyl)-N-(3-methoxy-3-methylbutyl)bicyclo[2.2.2] octane-1-carboxamide]
CNC(=O)CCNC(=O)C12CCC(c3ccc(OC/C(=C/F)CN)cc3)(CC1)CC2 [Compound 2.17, (E)-4-(4-((2-(amino-methyl)-3-fluoroallyl)oxy)phenyl)-N-(3-(methylamino)-3-oxopropyl)bicyclo[2.2.2] octane-1-carboxamide]
NC/C(=C\F)COc1ccc(C23CCC(C(=O)NCCOC4CCC4)(CC2)CC3)cc1 [Compound 2.120, (E)-4-(4-((2-(aminomethyl)-3-fluoroallyl)oxy)phenyl)-N-(2-cyclobutoxyethyl)bicyclo [2.2.2]octane-1-carboxamide]
COCC(C)(C)CNC(=O)C12CCC(c3ccc(OC/C(=C/F)CN)cc3)(CC1)CC2 [Compound 2.132, (E)-4-(4-((2-(aminomethyl)-3-fluoroallyl)oxy)phenyl)-N-(3-methoxy-2,2-dimethylpropyl)bicyclo[2.2.2] octane-1-carboxamide]
NC/C(=C\F)COc1ccc(C23CCC(C(=O)NCC4(O)CCCCC4)(CC2)CC3)cc1 [Compound 2.101, (E)-4-(4-((2-(aminomethyl)-3-fluoroallyl)oxy)phenyl)-N-((1-hydroxycyclohexyl)methyl) bicyclo[2.2.2]octane-1-carboxamide]
COCCNC(=O)C12CCC(c3ccc(OC/C(=C/F)CN)cc3)(CC1)CC2 [Compound 2.15, (E)-4-(4-((2-(aminomethyl)-3-fluoroallyl)oxy)phenyl)-N-(2-methoxyethyl) bicyclo[2.2.2] octane-1-carboxamide]
CC1(C)CN(C(=O)C23CCC(c4ccc(OC/C(=C/F)CN)cc4)(CC2)CC3)C1 [Compound 2.52, (E)-(4-(4-((2-(aminomethyl)-3-fluoroallyl)oxy)phenyl)bicyclo [2.2.2]octan-1-yl)(3,3-dimethylazetidin-1-yl)methanone]
Cc1cnc(CNC(=O)C23CCC(c4ccc(OC/C(=C/F)CN)cc4)(CC2)CC3)cn1 [Compound 2.158, (E)-4-(4-((2-(aminomethyl)-3-fluoroallyl)oxy)phenyl)-N-((5-methylpyrazin-2-yl)methyl)bicyclo[2.2.2]octane-1-carboxamide]
COC(=O)C1CCN(C(=O)C23CCC(c4ccc(OC/C(=C/F)CN)cc4)(CC2)CC3)CC1 [Compound 2.12, (E)-methyl 1-(4-(4-((2-(aminomethyl)-3-fluoroallyl)oxy)phenyl)bicyclo[2.2.2]octane-1-carbonyl)piperidine-4-carboxylate]
NC/C(=C\F)COc1ccc(C23CCC(C(=O)N4CCC4)(CC2)CC3)cc1 [Compound 2.40, (E)-(4-(4-((2-(aminomethyl)-3-fluoroallyl)oxy)phenyl)bicyclo [2.2.2]octan-1-yl)(azetidin-1-yl)methanone]
CC(C)(C)NC(=O)C12CCC(c3ccc(OC/C(=C/F)CN)cc3)(CC1)CC2 [Compound 2.49, (E)-4-(4-((2-(aminomethyl)-3-fluoroallyl)oxy)phenyl)-N-(tert-butyl)bicyclo[2.2.2]octane-1-carboxamide]
NC/C(=C\F)COc1ccc(C23CCC(c4nnc(C5CC5)o4)(CC2)CC3)cc1 [Compound 11.01, (E)-2-((4-(4-(5-cyclopropyl-1,3,4-oxadiazol-2-yl)bicyclo[2.2.2]octan-1-yl)phenoxy)methyl)-3-fluoroprop-2-en-1-amine]
COCC1(CNC(=O)C23CCC(c4ccc(OC/C(=C/F)CN)cc4)(CC2)CC3)CC1 [Compound 2.151, (E)-4-(4-((2-(aminomethyl)-3-fluoroallyl)oxy)phenyl)-N-((1-(methoxymethyl)cyclopropyl)methyl)bicyclo[2.2.2]octane-1-carboxamide]
NC/C(=C\F)COc1ccc(C23CCC(C(=O)NCCc4nnn[nH]4)(CC2)CC3)cc1 [Compound 2.11, (E)-N-(2-(1H-tetrazol-5-yl)ethyl)-4-(4-((2-(aminomethyl)-3-fluoroallyl)oxy)phenyl) bicyclo[2.2.2]octane-1-carboxamide]
CC1(C)CCC(NC(=O)C23CCC(c4ccc(OC/C(=C/F)CN)cc4)(CC2)CC3)CO1 (stereo not drawn) [Compound 2.153, (E)-4-(4-((2-(aminomethyl)-3-fluoroallyl)oxy)phenyl)-N-(6,6-dimethyltetrahydro-2H-pyran-3-yl)bicyclo[2.2.2]octane-1-carboxamide]
NC/C(=C\F)COc1ccc(C23CCC(C(=O)N4CCC(OCCO)CC4)(CC2)CC3)cc1 [Compound 2.85, (E)-(4-(4-((2-(aminomethyl)-3-fluoroallyl)oxy)phenyl)bicyclo [2.2.2]octan-1-yl)(4-(2-hydroxyethoxy)piperidin-1-yl)methanone]
CN(CCO)C(=O)C12CCC(c3ccc(OC/C(=C/F)CN)cc3)(CC1)CC2 [Compound 2.54, (E)-4-(4-((2-(aminomethyl)-3-fluoroallyl)oxy)phenyl)-N-(2-hydroxyethyl)-N-methylbicyclo[2.2.2]octane-1-carboxamide]
C[C@@H](NC(=O)C12CCC(c3ccc(OC/C(=C/F)CN)cc3)(CC1)CC2)C1CCOCC1 [Compound 2.28, (R,E)-4-(4-((2-(aminomethyl)-3-fluoroallyl)oxy)phenyl)-N-(1-(tetrahydro-2H-pyran-4-yl)ethyl)bicyclo[2.2.2]octane-1-carboxamide]
N#CC1(CNC(=O)C23CCC(c4ccc(OC/C(=C/F)CN)cc4)(CC2)CC3)CCOCC1 [Compound 2.62, (E)-4-(4-((2-(aminomethyl)-3-fluoroallyl)oxy)phenyl)-N-((4-cyanotetrahydro-2H-pyran-4-yl)methyl)bicyclo[2.2.2]octane-1-carboxamide]
NC/C(=C\F)COc1ccc(C23CCC(C(=O)NCCC(=O)O)(CC2)CC3)cc1 [Compound 2.08, (E)-3-(4-(4-((2-(aminomethyl)-3-fluoroallyl)oxy)phenyl)bicyclo[2.2.2]octane-1-carboxamido)propanoic acid]
CNC(=O)COC12CCC(c3ccc(OC/C(=C/F)CN)cc3)(CC1)CC2 [Compound 8, (E)-2-((4-(4-((2-(aminomethyl)-3-fluoroallyl)oxy)phenyl)bicyclo[2.2.2]octan-1-yl)oxy)-N-methylacetamide]
NC/C(=C\F)COc1ccc(C23CCC(C(=O)NCC(F)(F)F)(CC2)CC3)cc1 [Compound 2.109, (E)-4-(4-((2-(aminomethyl)-3-fluoroallyl)oxy)phenyl)-N-(2,2,2-trifluoroethyl)bicyclo [2.2.2]octane-1-carboxamide]
